What was measured:
influenza virus [1] = experiment: microbe, parasite or virus in culture; assay type: cell-based; details: for Selectivity Index: CC50 divided by IC50; for IC50: unidentified influenza virus
in vitro = details: dog
water-solubility = assay type: physicochemical
H1N1 virus = experiment: in vivo antiviral effect in mice infected with H1N1; details: for survival rate: nasal administration
H5N1 influenza virus = assay type: in vivo, BALB/c mice; details: 1×LD50 dose of H5N1; nasal administration, 5 doses; PB2-39 2.5 mg/kg, zanamivir 20 μl of 2.5 mg/ml
H7N9 virus = assay type: in vivo, BALB/c mice; details: 1×LD80 dose of H7N9; nasal administration, 5 doses; PB2-39 2.5 mg/kg, zanamivir 20 μl of 2.5 mg/ml
influenza H1N1 virus = assay type: cell-based, influenza virus A
influenza virus [2] = experiment: lung viral load and histopathology in infected mice (PB2-39 study); details: fourth day following inoculation
[3] = system: influenza viruses H1N1; H3N2; H5N1; H7N7; H7N9; H9N2; assay type: cell-based, influenza virus A; details: 20, 5, 1.25, 0.31 μM; 24 h after inoculation; MOI 0.002; RT-qPCR
[4] = 1×LD60 dose of H1N1, PB2-19 1 mg/kg
[5] = 1×LD60 dose of H1N1, PB2-19 1 mg/kg body weight
[6] = 5×LD50 dose of H1N1, 5 doses from 6 h after inoculation, PB2-39 2.5 mg/kg, zanamivir 20 μl of 2.5 mg/ml

In the case of `Cc1ccc(C(c2c(O)c3ccccc3oc2=O)c2c(O)c3ccccc3oc2=O)cc1` [PB2-35, 3,3′-[(4-methylphenyl)methylene]bis(4-hydroxy-2H-chromen-2-one)], the “Selectivity Index” value (influenza virus [1]) is reported as 40, the IC50 (influenza virus [1]) is reported as 1.24 ± 0.21 µM and the CC50 (in vitro) is reported as 50 ± 5 µM.
With `Cc1cc(C(=O)Nc2ccc(I)cc2C(=O)O)ccc1[N+](=O)[O-]` [PB2-19, 5-iodo-2-[(3-methyl-4-nitrobenzoyl)amino]benzoic acid] the “Selectivity Index” value (influenza virus [1]) was 273, the IC50 (influenza virus [1]) was 0.55 ± 0.05 µM and the CC50 (in vitro) was 150 ± 10 µM. The water-solubility (water-solubility) was “limited”, the histopathological findings (H1N1 virus; [4]) was “corroborated the ability of PB2-19 to provide in vivo anti-influenza effects” and the “viral proliferation in the lungs” value (H1N1 virus; [4]) was “effectively reduce”. It also gave a survival rate (H1N1 virus; [5]) of 100%.
With `CC(=O)N[C@H]1[C@H]([C@H](O)[C@H](O)CO)OC(C(=O)O)=C[C@@H]1N=C(N)N` [zanamivir, reference compound] the survival rate (H5N1 influenza virus) was 100%, the survival rate (H7N9 virus) was 100% and the survival rate (H1N1 virus; [5]) was 100%. The survival rate (H1N1 virus; [6]) was 100%.
With `O=c1oc2ccccc2c(O)c1C1c2c(c3ccccc3oc2=O)Oc2c1c(=O)oc1ccccc21` [PB2-39, 7-(4-hydroxy-2-oxo-2H-chromen-3-yl)-6H,7H,8Hchromeno[3,4′:5,6]pyrano[3,2-c]chromene-6,8-dione] the IC50 (influenza virus [1]) was 1.22 ± 0.23 µM, the survival rate (H5N1 influenza virus) was 100% and the “reduction of the viral titer of supernatant” value (influenza H1N1 virus) was 100-1000 times. For the same compound, the “amounts of viruses in lung tissues” value (influenza virus [2]; plaque assay, PB2-39 2.5 mg/kg nasal) was “significantly reduced”, the “histopathological examination: interstitial inflammatory cell infiltration and alveolar injury” value (influenza virus [2]; lung tissues) was “improvement” and the CC50 (in vitro) was > 1000 µM. For the same compound, the “inhibition of replication of tested influenza strains” value [3] was “inhibited the replication of all the tested influenza strains in a dose-dependent manner”, the survival rate (H7N9 virus) was 100% and the survival rate (H1N1 virus; [6]) was 100%.
